{"source": "paper PMC5618429", "about": "“Kempopeptin C, a Novel Marine-Derived Serine Protease Inhibitor Targeting Invasive Breast Cancer” (Marine Drugs, 2017)", "key": {"[1]": {"target": "T1, recombinant human matriptase (Homo sapiens, UniProt Q9Y5Y6)", "T1 construct": "purchased R&D Systems 3946-SE-010", "T1 sequence (Q9Y5Y6 615-855 limits assumed)": "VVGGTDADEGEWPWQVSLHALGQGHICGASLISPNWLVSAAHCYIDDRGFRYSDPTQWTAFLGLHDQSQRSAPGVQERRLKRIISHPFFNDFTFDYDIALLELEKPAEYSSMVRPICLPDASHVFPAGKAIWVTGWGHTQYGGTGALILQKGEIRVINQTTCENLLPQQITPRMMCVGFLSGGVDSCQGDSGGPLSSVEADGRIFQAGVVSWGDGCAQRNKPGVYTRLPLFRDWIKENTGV", "test": "Matriptase inhibition assay", "type": "biochemical", "conditions": "mean ± SD, n = 3; 15-min preincubation; read-out: IC50 against matriptase", "protocol": "In matriptase inhibition assay, 50 µL of recombinant human matriptase (R&D Systems, Minneapolis, MN, USA; 3946-SE-010) ([…] prepared in assay buffer: 50 mM Tris, 50 mM NaCl, 0.01% Tween 20; pH 9.0) and 1 µL of different concentrations of inhibitors (2 and 3; half log dilutions prepared in DMSO) or the solvent control were pre-incubated at room temperature for 15 min. Following the incubation period, 50 µL of the 50 µM substrate solution (Boc-Gln-Ala-Arg-AMC) (R&D Systems, Minneapolis, MN, USA; ES014) were added to each well, and the enzyme activity was monitored by measuring the increase in fluorescence signal from the fluorescently-labeled substrate every 30 s for 30 min (Ex 380 nm, Em 460 nm) using the SpectraMax M5 plate reader (Molecular Devices)."}, "MDA-MB-231 cells": {"test_system": "MDA-MB-231 cells", "test": "Transwell migration assay", "type": "cell-based", "conditions": "Homo sapiens, MDA-MB-231, 48 h", "protocol": "The significance of our compounds in inhibiting matriptase and targeting its downstream cellular substrates was evaluated by examining the effect of kempopeptin C (3) on the migration of highly invasive breast cancer cells. The effect on migration was investigated by treating MDA-MB-231 cells with different concentrations of the test compound or solvent control for 48 h. Following 48 h, migrated cells were stained with crystal violet, and the number was counted under the microscope. […] To rule out that proteasome inhibition might be responsible for the migration inhibitory activity, the effect of kempopeptin C (3) on the trypsin-like activity of proteasomes was tested in vitro.\nFigure 7 The effect of kempopeptin C (3) on the migration of MDA-MB-231. MDA-MB-231 were incubated for 48 h in the presence of different concentrations (0, 10 or 20 µM) of 3 and the effect was compared to the solvent control. The graph represents the number of migrated cells in each treatment group. The asterisks denote the significance of p ≤ 0.01 relative to the solvent control using the two-tailed unpaired t-test. Data are presented as the mean ± SD, n = 3.\nThe migration assays were performed using BD falcon cell culture inserts (353097; PET membrane, 8-µm pore size; Fisher Scientific; Waltham, MA, USA) in 24-well plates. […]"}}}
{"smiles": "CCCC(=O)NC(C(=O)NC1C(=O)NC(CCCCN)C(=O)NC2CCC(O)N(C2=O)C(C(C)CC)C(=O)N(C)C(Cc2ccc(OC)c(Cl)c2)C(=O)NC(C(C)C)C(=O)OC1C)C(C)C", "note": "(stereo not drawn) [Kempopeptin C, kempopeptin C]", "values": [{"measurement": "IC50", "setting": "[1]", "result": "0.28 ± 0.03", "unit": "µM"}, {"measurement": "inhibition at 10 µM", "setting": "MDA-MB-231 cells; MDA-MB-231, 10 µM", "result": 37, "unit": "%"}, {"measurement": "inhibition at 20 µM", "setting": "MDA-MB-231 cells; MDA-MB-231, 20 µM", "result": 60, "unit": "%"}]}
